The results in this text go back to paper PMC11083148, “Structure–Activity Relationship Studies on Highly Functionalized Pyrazole Hydrazones and Amides as Antiproliferative and Antioxidant Agents” (International Journal of Molecular Sciences, 2024).

Each structure is given as a SMILES string.

Assay [1] is described as follows: DPPH radical-scavenging activity. It is filed as physicochemical. Also on record: AA (%), percentage of antioxidant activity: concentration or dose not given beside the values. As to conditions: mean ± SD, n = 2. As to the method: The antioxidant activity of the representative compounds of the two series (namely, acylhydrazones 10b, 11a, 11d, 12d, 13d, and amides 14, 22) was measured in vitro using the 2,2-diphenyl-1-picrylhydrazyl (DPPH) assay. The results were calculated as Trolox equivalent and expressed as a percentage of antioxidant activity (AA) (Table 3). […] Derivatives 10b and 12d were endowed with the highest antioxidant activity, thus highlighting the relevance of both pyrazole N1 and acylhydrazone substituents on compounds’ radical scavenging properties.
Compounds 10b, 11a, 11d, 12d, 13d, 14, and 22 (ca. 3 mg) were dissolved in DMSO (1 mL), and then 100 µL of this solution was mixed with 3.9 mL of DPPH methanol solution (65 µM). Absorbance was measured at 517 nm after reacting for 30 min in the dark. The linear calibration curve was obtained using Trolox standards (ranging between 20 and 200 mg/L, R^2 = 0.9955). The result was calculated as Trolox equivalent in mg/L, and the percentage of antioxidant activity (AA%) was calculated from the ratio of decreasing absorbance of sample solution (A0 − As) to absorbance of blank DPPH solution (A0), as expressed in Equation (1). (1) AA%=A0−As/A0×100
All analyses were carried out in duplicate (n = 2), and values are given as means ± standard deviation (SD).
A general note: The DPPH test is a chemical assay of radical scavenging.

A further assay concerns NCI-H522. Kind of assay: NCI screening, Non-Small Cell Lung Cancer. It counts as cell-based. The note with it: 10 µM. As to the method: (§1) In addition, 11a and 17 (representative compounds of the acylhydrazone and amide series) were selected by the National Cancer Institute (NCI, Germantown, MD, USA) and tested at a fixed concentration of 10 µM against a panel of fifty-nine different cancer cell lines, including highly metastatic tumors (Table 2).

Another assay has as its system NCI-H460. Kind of assay: NCI screening, Non-Small Cell Lung Cancer. The note with it: 10 µM. It counts as cell-based. As to the method: as §1

For `COc1ccc(/C=N/NC(=O)c2c(N)nn(C)c2Nc2ccccc2)cc1` [11a, (E)-3-amino-N′-(4-methoxybenzylidene)-1-methyl-5-(phenylamino)-1H-pyrazole-4-carbohydrazide], in assay [1], the “AA (%), percentage of antioxidant activity” value is on record as 25.56 ± 2.44% and the “DPPH (%)” value is listed as 74.44 ± 2.44%.
On to `CCOC(=O)c1c(NC(=O)C2CC2)nn(C)c1Nc1ccccc1` [compound 17, Ethyl 3-(cyclopropanecarboxamido)-1-methyl-5-(phenylamino)-1H-pyrazole-4-carboxylate], for which the results for the “Growth Percentage (%)” value with NCI-H522 and with NCI-H460 were 97.23% and 101.02%, respectively.
